From patent US11497740B2, “Use of Jumonji C demethylase inhibitors for the treatment and prevention of chemotherapy resistance and radioresistance in cancer” (THE BOARD OF REGENTS OF THE UNIVERSITY OF TEXAS SYSTEM, priority 2016, dated 2022)

Columns and labels:
[1] = system: H1299 T18; assay: MTS cell viability assay, H1299 T18 resistant variant vs H1299 Parental; type: cell-based, human; settings: H1299 T18 vs H1299 Parental
Method: (§1) NSCLC lines were treated with paclitaxel+carboplatin combination, given in a ˜2:3 wt/wt ratio, to mirror the clinical dosage values of ˜225 mg/m2 and ˜330 mg/m2, paclitaxel and carboplatin respectively. Note that considering the molecular weights of the two drugs, this translates to approximately a 1 to 3.4 molar ratio. Drugs were given in cycles, following a drug on/drug off treatment scheme. Each cycle consisted of 4-5 days of drug treatment and drug-free culturing for about 1-2 weeks or more to allow the surviving cells to repopulate the plate. […] Untreated parental cells were simultaneously maintained at all times for comparison. Cell viability was assessed in 96-well plates using standard MTS assays (Promega). Treatment duration in MTS assays was 4 days. Drugs were tested in two- or four-fold serial dilutions, totaling 8 different drug concentrations, with 8 replicates per concentration. Response was validated in multiple replicate plates (n≥3).
(§2) Cell viability was assessed by standard MTS assays using Promega's CellTiter reagents. Eight drug concentrations given as two- or four-fold dilutions were tested for each chemotherapeutic agent. In addition, each experiment contained eight replicates per concentration and the entire assay was performed in multiple replicates (n≥3).

[2] = system: H1299 Parental xenografts; settings: for final tumor burden (tumor weights) of combination / tumor growth inhibition of combination: combination with paclitaxel+carboplatin chemotherapy
Method: (§3) Animals were housed under standard, sterile conditions at UTSW animal facility. All experiments were carried out under approved IACUC protocols and followed UTSW animal care procedures. For tumor growth rate studies and docetaxel+cisplatin drug response comparisons, 6-8 week old female NOD/SCID mice were used. For all subsequent in vivo drug response studies, 6 week old female athymic nude mice were used (Charles River Labs, Jackson Labs). Experimental details are provided in supplemental information.
(§4) Parental and resistant NSCLC cell lines (1×10^6 cells in PBS or RPMI for H1299; 5×10^6 cells in PBS/matrigel for H1355 and HCC4017) were injected subcutaneously into the right flank of mice. Tumor growth was monitored by caliper measurements and tumor volume was calculated by 0.5×length×width^2). Treatment was started when tumors reached ˜150-200 mm3. Drug/Vehicle therapy was given to tumor volume matched pairs. Docetaxel (3 mg/kg) and cisplatin (3 mg/kg) were given i.p. once a week for 3 weeks. For JIB-04 studies, nude mice were randomized to receive either of 5, 20 or 50 mg/kg doses or vehicle, 3× per week for 2 weeks by gavage in 12.5% cremophor EL, 12.5% DMSO, aqueous suspension.

[3] = system: H1299 T18 xenografts; settings: for final tumor weights vs vehicle: GSK-J4 100 mg/kg 10 days, JIB-04 50 mg/kg; for tumor volume vs vehicle: GSK-J4 100 mg/kg every day 10 days, JIB-04 5, 20 or 50 mg/kg 3x per week 2 weeks by gavage
Method: as §3, §4

[4] = system: ABCB1/MDR1; assay: qRT-PCR of ABCB1/MDR1 in treated H1299 T18 cells; type: cell-based, human; settings: for expression of MDR1: H1299 T18 cells
Text: Total RNA was isolated using RNeasy Plus Mini kit (Qiagen) and cDNA was generated using iScript cDNA synthesis kit (BioRad). For epigenetic enzymes, transcripts were detected by SYBR Green chemistry in real time quantitative PCR assays using validated primers. TBP and GAPDH were used as endogenous controls. […] For all non-epigenetic transcripts, TaqMan probes (Life Technologies) were utilized in multiplex with GAPDH internal reference gene. Additionally, a reference sample containing pooled RNA from normal human and tumor tissues (Stratagene) was used. PCR reactions were run using the ABI 7300 Real-time PCR System and analyzed with the included software. The comparative CT method was used to compute relative mRNA expression.

[5] = system: HCC4017 T5; assay: MTS cell viability assay, HCC4017 T5 resistant variant vs parental; type: cell-based, human; settings: HCC4017 T5 vs parental
Method: as §1, §2

[6] = system: H1693 T8; assay: MTS cell viability assay, H1693 T8 resistant variant vs parental; type: cell-based, human; settings: H1693 T8 vs parental
Method: as §1, §2

[7] = system: H1355 Parental xenografts; assay: Subcutaneous xenograft drug response, H1355 Parental; type: in vivo, mice; settings: GSK-J4 100 mg/kg i.p. 5x per week; JIB-04 50 mg/kg oral gavage 3x per week; 4 weeks
Method: as §3
as §4, with “For JIB-04 studies, nude mice were randomized to receive either of 5, 20 or 50 mg/kg doses or vehicle, 3× per week for 2 weeks by gavage in 12.5% cremophor EL, 12.5% DMSO, aqueous suspension.” left out

[8] = system: radioresistant (HCC95, HCC1195 and HCC2279) NSCLC cell lines; assay: Clonogenic survival with IR, radioresistant NSCLC lines; type: cell-based, Human; settings: all radioresistant NSCLC lines tested
Method: (§5) Cells were serially diluted to appropriate concentrations and plated into 60-mm dish in triplicate for 4 h. Then cells were treated with the indicated drugs, and irradiated 4 hours later with graded doses of radiation for concurrent treatment or irradiated and 4 hours later the drugs added for post-treatment. All cells were irradiated at room temperature in ambient air using a 137Cs source (Mark 1-68 irradiator, JL Shepherd & Associated). Surviving colonies were stained with crystal violet approximately 10 to 14 days later and colonies formed with more than 50 cells were counted. Clonogenic fraction of irradiated cells was normalized to the plating efficiency of unirradiated controls. The data are presented as the mean±SD. The curve S=e^−(αD+βD2) was fitted to the experimental data using a least square fit algorithm using the program Sigma Plot 11.0 (Systat Software, Inc.).

[9] = system: radiosensitive (HCC1719, H23, H1650, H1395 and H2228) NSCLC cell lines; assay: Clonogenic survival with IR, radiosensitive NSCLC lines; type: cell-based, Human
Method: as §5

[10] = system: cell cycle distribution; assay: Cell cycle analysis (PI staining); type: cell-based, Human; settings: H1299 and A549; JIB-04 4 h with or without IR (2 Gy)
Method: NSCLCs were seeded in 6 wells plate, 24 h latter cells were pretreated with JIB-04 or DMSO for 4 h and exposed to a total dose of 2 Gy. Then cells were collected and fixed using 75% ethanol at […] for at least 24 hours. The cells were resuspended with PBS and incubated with 20 μl 1 mg/ml RNase A (Sigma) and 25 μg ml/ml propidium iodide (Sigma) for 30 min at room temperature. Experiment was done by triplicate, 20,000 cells were counted and the proportion of cells of different phase was analyzed using the software Flowjo.

[11] = from non-linear regression/exponential growth curves

CCOC(=O)CCNc1cc(N2CCc3ccccc3CC2)nc(-c2ccccn2)n1 [GSK-J4] was tested, and the “sensitivity of resistant variant compared to parental cells” value [1] was “higher sensitivity”, the “final tumor weights vs vehicle” value ([2]; GSK-J4 100 mg/kg 10 days) was “no significant drug-induced decrease” and the “final tumor burden (tumor weights) of combination” value [2] was “significant reduction in final tumor burden compared to either therapy alone”. The “tumor growth inhibition of combination” value [2] was “significantly greater tumor growth inhibition than single agents”, the “final tumor weights vs vehicle” value [3] was “significant decrease in final tumor weights” and the “tumor volume vs vehicle” value [3] was “significant reduction in average tumor volume”. For the same molecule, the “% γH2AX+ cells in tumors (IHC)” value ([3]; mouse, in vivo) was “increased the % γH2AX+ cells”, the “cleaved caspase 3 staining in tumors (IHC)” value ([3]; mouse, in vivo) was “focally increased cleaved caspase 3 staining” and the “expression of MDR1” value [4] was “not altered”.

With Clc1ccc(N/N=C(\c2ccccc2)c2ccccn2)nc1 [JIB-04] the “sensitivity of resistant variant compared to parental cells” value [1] was “several-fold hyper-sensitized”, the “H1299 T18 SR (Selectivity Ratio)” value ([1]; SR = [IC50 of Parental]/[IC50 of Resistant]) was 20.3 and the “fold increased sensitivity vs parental” value [5] was about 3 fold. The “fold increased sensitivity vs parental” value [6] was about 3 fold, the “tumor volume vs vehicle” value ([2]; GSK-J4 100 mg/kg every day 10 days, JIB-04 5, 20 or 50 mg/kg 3x per week 2 weeks by gavage) was “significantly reduced tumor burden” and the “final tumor burden (tumor weights) of combination” value [2] was “significant reduction in final tumor burden compared to either therapy alone”. The “tumor growth inhibition of combination” value [2] was “significantly greater tumor growth inhibition than single agents”, the “change in tumor doubling time” value [2, 11] was under 25% and the “final tumor weights vs vehicle” value [3] was “significant decrease in final tumor weights”. For the same molecule, the “tumor volume vs vehicle” value [3] was “greater percent reduction in final tumor volumes”, the “increase in tumor doubling time” value [3, 11] was 69% and the “% Ki67+ cells in tumors (IHC)” value ([3]; mouse, in vivo) was “reduction of % Ki67+ cells”. The “cleaved caspase 3 staining in tumors (IHC)” value ([3]; mouse, in vivo) was “focally increased cleaved caspase 3 staining”, the “change in tumor volume relative to treatment start” value [7] was “continued to grow in volume” and the “expression of MDR1” value [4] was “not altered”. For the same molecule, the “decrease in ABCB1/MDR1 mRNA expression” value ([4]; high dose JIB-04 (10×-20×IC50), 24-48 h treatment) was 10-20%, the “decrease in ABCB1/MDR1 mRNA expression” value ([4]; low dose JIB-04 (1×IC50), 1 wk treatment) was 10-20% and the “survival fraction at 2 Gy of radiation (SF2)” value [8] was “decreasing the survival fraction at 2 Gy of radiation (SF2)”. For the same molecule, the “survival fraction at 2 Gy of radiation (SF2)” value [9] was “not affecting already radiosensitive lines” and the cell cycle distribution [10] was “do not Affect Cell Cycle Distribution”.
